From patent US7189505B2, “Methods of assessing HIV integrase inhibitor therapy” (Tibotec BVBA, priority 2001, dated 2007) come the findings set out here.

Holding throughout (assay type): cell-based, HIV-1
The subject of test [1] is recombinant virus generated from HXB2D site-directed mutant virus, integrase T66I/M154I mutations. Briefly: Antiviral experiment with recombinant virus from site-directed mutant virus, T66I/M154I. As to conditions: versus wild type, MT4-LTR-EGFP cells. The method, then:
(§1) The integrase encoding sequence was amplified from either wildtype HIV-1 (IIIB) or NL4.3 virus, or HXB2D site-directed mutant viruses containing mutations in integrase (such as T66I, S153Y, M154I, or combinations thereof) (Hazuda et al., Science 2000, 287, 646–650), or patient samples. Starting from RNA, extracted from virus supernatant or plasma using the QIAamp® viral RNA extraction kit (Qiagen), cDNA was synthesized by reverse transcription (Expand™ reverse transcriptase, 30 min at 42° C.) with the primer 3′EGINT10 (SEQ ID NO 11), followed by a nested PCR. […]
(§2) Recombinant virus was produced by co-transfection by electroporation of the SmaI-linearized IN-deletion construct and the integrase amplicon into MT4 cells or MT4 cells equipped with an LTR driven reporter gene construct. Production of recombinant virus was evaluated by scoring the cytopathogenic effect (CPE) that is induced by HIV-infection of MT4 cells or by the LTR-driven reporter signal induced by HIV infection in MT4 reporter cells. […]

The subject of test [2] is recombinant virus generated from HXB2D site-directed mutant virus, integrase T66I mutation. Briefly: Antiviral experiment with recombinant virus from site-directed mutant virus, T66I. As to conditions: versus wild type, MT4-LTR-EGFP cells. The method, then:
as §1, §2

Test [3] deals with recombinant virus generated from HXB2D site-directed mutant virus, integrase S153Y. Briefly: Antiviral experiment with recombinant virus from site-directed mutant virus, S153Y. As to conditions: S153Y mutation in integrase; versus wild type; MT4-LTR-EGFP cells. As to the method: as §1, §2
Test [4] relates to recombinant virus generated from HXB2D site-directed mutant virus, integrase M154I mutation. Briefly: Antiviral experiment with recombinant virus from site-directed mutant virus, M154I. As to conditions: versus wild type, MT4-LTR-EGFP cells. The method, then: as §1, §2
The subject of test [5] is recombinant virus generated from HXB2D site-directed mutant virus, integrase T66I/S153Y mutations. Briefly: Antiviral experiment with recombinant virus from site-directed mutant virus, T66I/S153Y. As to conditions: versus wild type, MT4-LTR-EGFP cells. As to the method:
as §1, §2

Take `CC(C)Oc1ccc(Cc2ccccc2)cc1C(=O)CC(=O)C(=O)O` [compound 4, 2-(1-methylethyloxy)-, -dioxo-5-(phenylmethyl)-benzenebutanoic acid]: the “fold increase in EC50” value is 10 fold in test [1]; 2 fold in test [2]; 5 fold in test [3]; 3 fold in test [4]; 10 fold in test [5].
